For 8 molecules, IC50 results are on record in patent publication US11878965B2, “Inhibitors of peptidylarginine deiminases” (Gilead Sciences, Inc., priority 2020, dated 2024).

Chain of human PAD4 (Q9UM07 2-663): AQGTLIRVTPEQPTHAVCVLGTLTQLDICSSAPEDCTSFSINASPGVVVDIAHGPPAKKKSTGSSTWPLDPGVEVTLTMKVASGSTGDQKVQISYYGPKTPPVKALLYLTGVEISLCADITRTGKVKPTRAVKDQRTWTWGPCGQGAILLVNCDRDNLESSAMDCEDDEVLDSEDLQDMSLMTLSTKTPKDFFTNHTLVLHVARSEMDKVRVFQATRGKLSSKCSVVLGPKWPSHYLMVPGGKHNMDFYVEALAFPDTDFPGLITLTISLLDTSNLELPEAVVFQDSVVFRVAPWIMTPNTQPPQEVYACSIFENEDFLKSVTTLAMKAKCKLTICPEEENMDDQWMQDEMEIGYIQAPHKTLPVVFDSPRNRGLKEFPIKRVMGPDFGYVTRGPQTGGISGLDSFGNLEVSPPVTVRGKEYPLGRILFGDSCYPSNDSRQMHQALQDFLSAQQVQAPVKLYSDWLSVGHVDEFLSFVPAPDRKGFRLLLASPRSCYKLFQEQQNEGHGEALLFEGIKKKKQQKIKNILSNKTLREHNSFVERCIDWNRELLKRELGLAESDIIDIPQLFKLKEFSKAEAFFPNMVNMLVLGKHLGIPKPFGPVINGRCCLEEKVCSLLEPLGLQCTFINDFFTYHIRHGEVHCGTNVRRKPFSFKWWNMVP

One experiment addresses human PAD4 (Homo sapiens (Human), UniProt Q9UM07). The experiment is described as follows: In Vitro PAD4 BAEE Biochemical Assay. The note with it: human PAD4, BAEE substrate; 5 nM PAD4, 2 mM calcium chloride, 3 mM BAEE; geometric mean of multiple experiments. Summed up:
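Deimination of BAEE substrate (3 mM) measured as ammonia via o-phthalaldehyde–DTT isoindole fluorescence, 405/535 nm. Tag-free bacterially expressed human PAD4 at 5 nM with 2 mM calcium chloride, pH 7.6 MOPS buffer, 30 min compound preincubation then 2 h reaction, both at 25 °C.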
Turning to `COc1cc(C(=O)N2C[C@H](N)CCN2C)cc2nc(-c3cc4ccc([C@@H](C)NC(=O)c5c(C)ccnc5C)nc4n3CC3CC3)n(C)c12` [Example 178, N-((R)-1-(2-(5-((R)-5-amino-2-methylhexahydropyridazine-1-carbonyl)-7-methoxy-1-methyl-1H-benzo[d]imidazol-2-yl)-1-(cyclopropylmethyl)-1H-pyrrolo[2,3-b]pyridin-6-yl)ethyl)-2,4-dimethylnicotinamide], the IC50 worked out at 80.4 nM. Consider `CS(=O)(=O)N(c1ccc2cc(-c3nc4cc(C(=O)N5CCC[C@@H](N)C5)ccc4n3C3CC3)n(CC3CC3)c2n1)C(F)F` [Example 54, (R)-N-(2-(5-(3-aminopiperidine-1-carbonyl)-1-cyclopropyl-1H-benzo[d]imidazol-2-yl)-1-(cyclopropylmethyl)-1H-pyrrolo[2,3-b]pyridin-6-yl)-N-(difluoromethyl) methanesulfonamide], for which the half-maximal inhibitory concentration (IC50) is 37.4 nM.

Regarding `CS(=O)(=O)N(c1ccc2cc(-c3nc4cc(C(=O)N5C[C@H]6CC[C@@H]5[C@@H]6N)ccc4n3C3CC3)n(CC3CC3)c2n1)C(F)F` [Example 55, N-(2-(5-((1R,4R,7R)-7-amino-2-azabicyclo[2.2.1]heptane-2-carbonyl)-1-cyclopropyl-1H-benzo[d]imidazol-2-yl)-1-(cyclopropylmethyl)-1H-pyrrolo[2,3-b]pyridin-6-yl)-N-(difluoromethyl) methanesulfonamide], the IC50 was 89.6 nM.

Regarding `COc1cc(C(=O)N2C[C@H](N)CCN2C)cc2nc(-c3cc4ccc([C@@H](C)NC(=O)C56CC(C)(C5)C6)nc4n3CC3CC3)n(C)c12` [Example 187, N-((R)-1-(2-(5-((R)-5-amino-2-methylhexahydropyridazine-1-carbonyl)-7-methoxy-1-methyl-1H-benzo[d]imidazol-2-yl)-1-(cyclopropylmethyl)-1H-pyrrolo[2,3-b]pyridin-6-yl)ethyl)-3-methylbicyclo[1.1.1]pentane-1-carboxamide], the half-inhibitory concentration (IC50) worked out at 96.9 nM. Still for that read-out and setting: next, `Cc1cc2c(cc1C(=O)N1C[C@H]3CC[C@@H]1[C@@H]3N)nc(-c1cc3ccc(N(C(F)F)S(C)(=O)=O)nc3n1CC1CC1)n2C` [Example 57, N-(2-(5-((1R,4R,7R)-7-amino-2-azabicyclo[2.2.1]heptane-2-carbonyl)-1,6-dimethyl-1H-benzo[d]imidazol-2-yl)-1-(cyclopropylmethyl)-1H-pyrrolo[2,3-b]pyridin-6-yl)-N-(difluoromethyl) methanesulfonamide]: 11200 nM; `COc1cc(C(=O)N2C[C@H](N)CC[C@@H]2C)cc2nc(-c3cc4ccc(-c5ccc6nnnn6c5C)nc4n3CC3CC3)n(C)c12` [Example 275, ((2S,5R)-5-amino-2-methylpiperidin-1-yl)(2-(1-(cyclopropylmethyl)-6-(5-methyltetrazolo[1,5-a]pyridin-6-yl)-1H-pyrrolo[2,3-b]pyridin-2-yl)-7-methoxy-1-methyl-1H-benzo[d]imidazol-5-yl)methanone]: 658 nM.

Still in this experiment, the particulars now being: recombinant PAD4 5 nM, 2 mM calcium chloride, 3 mM BAEE substrate; geometric mean of multiple experiments.
`COc1cc(C(=O)N2C[C@H](N)[C@@H]3CC[C@H]2C3)cc2nc(-c3cc4ccc([C@@H](C)NC(=O)C5(F)CCC5)nc4n3CC3CC3)n(C)c12` [Example 327, N-((R)-1-(2-(5-((1S,4R,5R)-4-amino-2-azabicyclo[3.2.1]octane-2-carbonyl)-7-methoxy-1-methyl-1H-benzo[d]imidazol-2-yl)-1-(cyclopropylmethyl)-1H-pyrrolo[2,3-b]pyridin-6-yl)ethyl)-1-fluorocyclobutane-1-carboxamide]: the concentration for half-maximal inhibition (IC50) is 88.4 nM. The same measure, in the same setting: then `COc1cc(C(=O)N2C[C@H](N)[C@@H]3CC[C@H]2C3)cc2nc(-c3cc4ccc([C@@H](C)NC(=O)c5ccccc5OC(F)(F)F)nc4n3CC3CC3)n(C)c12` [Example 294, N-((R)-1-(2-(5-((1S,4R,5R)-4-amino-2-azabicyclo [3.2.1]octane-2-carbonyl)-7-methoxy-1-methyl-1H-benzo[d]imidazol-2-yl)-1-(cyclopropylmethyl)-1H-pyrrolo[2,3-b]pyridin-6-yl)ethyl)-2-(trifluoromethoxy)benzamide], with 277 nM.

As usually defined, the IC50 is the concentration that inhibits the measured activity by half.
